Reference: PMC4280904 (Journal of Veterinary Pharmacology and Therapeutics, 2014)
Where “and” joins values, the source holds several entries; their conditions need not be identical. Equal values may be shown once. Read-outs that look alike come from different tables or passages of the source. Marks after values point to notes of the source that are not given here.

Assays:
[1] = target: CYP1A1 (Homo sapiens, UniProt P04798); assay: In vitro enzyme inhibition, recombinant CYP, fluorescent metabolites; format: in vitro ADME
Sequence of CYP1A1 (P04798 whole entry): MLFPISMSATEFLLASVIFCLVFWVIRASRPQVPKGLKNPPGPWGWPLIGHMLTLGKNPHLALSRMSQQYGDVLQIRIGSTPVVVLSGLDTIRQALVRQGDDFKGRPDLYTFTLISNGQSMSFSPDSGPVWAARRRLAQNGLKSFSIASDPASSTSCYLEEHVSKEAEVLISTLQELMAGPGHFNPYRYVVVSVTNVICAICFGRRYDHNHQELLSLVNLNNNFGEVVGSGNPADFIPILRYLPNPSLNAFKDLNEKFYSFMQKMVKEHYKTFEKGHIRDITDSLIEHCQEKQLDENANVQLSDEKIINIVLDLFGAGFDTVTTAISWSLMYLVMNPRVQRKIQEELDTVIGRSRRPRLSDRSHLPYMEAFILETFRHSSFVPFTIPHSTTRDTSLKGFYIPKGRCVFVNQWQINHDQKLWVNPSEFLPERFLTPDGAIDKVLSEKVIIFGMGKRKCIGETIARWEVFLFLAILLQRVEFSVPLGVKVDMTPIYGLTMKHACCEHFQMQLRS

[2] = target: CYP2D6 (Homo sapiens, UniProt P10635); assay: as above; format: in vitro ADME
Sequence of CYP2D6 (P10635 whole entry): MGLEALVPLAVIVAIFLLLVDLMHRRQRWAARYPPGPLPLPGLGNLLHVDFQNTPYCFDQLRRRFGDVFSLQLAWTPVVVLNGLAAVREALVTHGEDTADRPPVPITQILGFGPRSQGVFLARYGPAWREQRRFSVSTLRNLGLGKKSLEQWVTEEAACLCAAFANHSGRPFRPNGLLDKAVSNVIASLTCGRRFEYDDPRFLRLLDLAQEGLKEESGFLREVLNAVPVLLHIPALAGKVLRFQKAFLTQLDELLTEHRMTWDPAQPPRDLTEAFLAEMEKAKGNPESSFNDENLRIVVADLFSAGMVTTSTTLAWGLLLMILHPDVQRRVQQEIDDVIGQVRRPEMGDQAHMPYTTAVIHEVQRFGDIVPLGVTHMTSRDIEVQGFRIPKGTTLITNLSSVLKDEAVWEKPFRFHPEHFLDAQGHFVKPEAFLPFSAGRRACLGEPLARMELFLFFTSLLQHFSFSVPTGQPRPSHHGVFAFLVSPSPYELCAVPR

[3] = test system: NAT2; assay: In vivo enzyme induction: N-acetyltransferase, procainamide; parameters: species or system Wistar rats; conditions: rats, 3–100 mg/kg p.o. once daily 7 days
[4] = test system: plasma proteins; assay: Reversibility of protein binding; format: in vitro ADME; conditions: human plasma, incubation up to 2 h at 37 °C, TCA precipitation
[5] = Single dose and repeated; format: in vivo, beagle dogs; conditions: 30 mg/kg tablets p.o.; for AUC(0-inf): AUCinf; for Vd/F: Vz/f
[6] = target: CYP3A4 (Homo sapiens, UniProt P08684); assay: In vitro enzyme inhibition, recombinant CYP, fluorescent metabolites; format: in vitro ADME; conditions: up to the highest concentration tested (100 μM)
Sequence of CYP3A4 (P08684 whole entry): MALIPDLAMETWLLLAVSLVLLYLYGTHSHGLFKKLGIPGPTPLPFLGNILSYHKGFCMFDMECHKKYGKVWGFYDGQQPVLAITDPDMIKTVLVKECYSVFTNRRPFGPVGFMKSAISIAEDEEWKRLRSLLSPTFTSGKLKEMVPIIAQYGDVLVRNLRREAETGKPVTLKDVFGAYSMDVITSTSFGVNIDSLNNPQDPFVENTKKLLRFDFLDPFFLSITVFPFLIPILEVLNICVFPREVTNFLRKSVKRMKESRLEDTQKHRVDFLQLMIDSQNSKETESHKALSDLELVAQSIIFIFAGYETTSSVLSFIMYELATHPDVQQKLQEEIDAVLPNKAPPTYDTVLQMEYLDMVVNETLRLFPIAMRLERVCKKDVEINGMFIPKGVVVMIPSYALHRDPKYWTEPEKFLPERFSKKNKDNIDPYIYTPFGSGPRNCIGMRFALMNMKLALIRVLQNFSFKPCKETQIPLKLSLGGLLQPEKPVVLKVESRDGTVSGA

[7] = test system: plasma protein; assay: In vivo plasma protein binding in dogs dosed with [14C] imepitoin; format: in vitro ADME, beagle dogs
[8] = test system: plasma protein; assay: In vitro plasma protein binding; format: in vitro ADME; conditions: male, human
[9] = test system: CYP3A; assay: In vivo enzyme induction: erythromycin N-demethylase; parameters: species or system Wistar rats; conditions: rats, 3–100 mg/kg p.o. once daily 7 days
[10] = dogs, 5 mg/kg, at time of seizure induction; ref Löscher et al., 2004; cited from earlier work
[11] = target: CYP2C8 (Homo sapiens, UniProt P10632); assay: In vitro enzyme inhibition, recombinant CYP, fluorescent metabolites; format: in vitro ADME; conditions: up to the highest concentration tested (100 μM)
Sequence of CYP2C8 (P10632 whole entry): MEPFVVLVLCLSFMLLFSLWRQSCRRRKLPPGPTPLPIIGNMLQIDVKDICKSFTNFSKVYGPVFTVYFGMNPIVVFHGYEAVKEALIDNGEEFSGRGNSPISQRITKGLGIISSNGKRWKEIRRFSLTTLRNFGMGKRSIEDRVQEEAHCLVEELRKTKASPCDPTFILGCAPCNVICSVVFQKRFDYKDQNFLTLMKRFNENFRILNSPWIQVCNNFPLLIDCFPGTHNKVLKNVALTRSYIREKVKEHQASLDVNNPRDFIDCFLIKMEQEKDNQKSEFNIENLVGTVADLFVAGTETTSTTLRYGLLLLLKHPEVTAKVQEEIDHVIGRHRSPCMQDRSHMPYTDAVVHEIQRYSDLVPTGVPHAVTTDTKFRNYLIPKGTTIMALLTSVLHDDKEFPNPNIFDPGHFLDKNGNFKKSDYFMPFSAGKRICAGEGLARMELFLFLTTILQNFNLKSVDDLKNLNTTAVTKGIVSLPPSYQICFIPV

[12] = test system: CYP2E1; assay: In vivo enzyme induction: nitrophenol hydroxylase; parameters: species or system Wistar rats; conditions: rats, 3–100 mg/kg p.o. once daily 7 days
[13] = target: CYP2A6 (Homo sapiens, UniProt P11509); assay: In vitro enzyme inhibition, recombinant CYP, fluorescent metabolites; format: in vitro ADME
Sequence of CYP2A6 (P11509 whole entry): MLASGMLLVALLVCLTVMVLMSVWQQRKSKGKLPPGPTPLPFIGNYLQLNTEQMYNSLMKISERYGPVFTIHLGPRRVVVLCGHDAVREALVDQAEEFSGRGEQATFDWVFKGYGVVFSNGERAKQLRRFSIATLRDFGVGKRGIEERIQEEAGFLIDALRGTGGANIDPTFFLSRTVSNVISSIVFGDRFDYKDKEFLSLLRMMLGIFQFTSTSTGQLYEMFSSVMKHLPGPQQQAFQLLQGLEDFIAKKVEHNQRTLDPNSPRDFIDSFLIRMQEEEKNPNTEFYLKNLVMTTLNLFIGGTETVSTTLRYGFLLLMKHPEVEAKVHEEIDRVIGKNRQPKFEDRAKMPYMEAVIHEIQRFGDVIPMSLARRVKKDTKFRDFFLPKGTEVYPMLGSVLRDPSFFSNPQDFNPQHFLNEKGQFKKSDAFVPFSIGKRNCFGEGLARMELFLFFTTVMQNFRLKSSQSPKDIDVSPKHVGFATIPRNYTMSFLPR

[14] = test system: pentylenetetrazole-induced convulsions; conditions: dogs, ref Löscher et al., 2004, cited from earlier work
[15] = test system: CYP2D1; assay: In vivo enzyme induction: dextromethorphan O-demethylase; parameters: species or system Wistar rats; conditions: rats, 3–100 mg/kg p.o. once daily 7 days
[16] = Excretion balance of [14C] imepitoin after oral and intravenous dosing; format: in vivo, beagle dogs; conditions: for Fraction excreted, Total / Fraction excreted, Urine + Cage wash / Fraction excreted, Feces: cumulative radioactivity, mean (CV %)
[17] = test system: NAT1; assay: In vivo enzyme induction: N-acetyltransferase, p-aminobenzoic acid; parameters: species or system Wistar rats; conditions: rats, 3–100 mg/kg p.o. once daily 7 days
[18] = ref Heinecke & Thiel, 2001; cited from earlier work
[19] = target: CYP2C19 (Homo sapiens, UniProt P33261); assay: In vitro enzyme inhibition, recombinant CYP, fluorescent metabolites; format: in vitro ADME
Sequence of CYP2C19 (P33261 whole entry): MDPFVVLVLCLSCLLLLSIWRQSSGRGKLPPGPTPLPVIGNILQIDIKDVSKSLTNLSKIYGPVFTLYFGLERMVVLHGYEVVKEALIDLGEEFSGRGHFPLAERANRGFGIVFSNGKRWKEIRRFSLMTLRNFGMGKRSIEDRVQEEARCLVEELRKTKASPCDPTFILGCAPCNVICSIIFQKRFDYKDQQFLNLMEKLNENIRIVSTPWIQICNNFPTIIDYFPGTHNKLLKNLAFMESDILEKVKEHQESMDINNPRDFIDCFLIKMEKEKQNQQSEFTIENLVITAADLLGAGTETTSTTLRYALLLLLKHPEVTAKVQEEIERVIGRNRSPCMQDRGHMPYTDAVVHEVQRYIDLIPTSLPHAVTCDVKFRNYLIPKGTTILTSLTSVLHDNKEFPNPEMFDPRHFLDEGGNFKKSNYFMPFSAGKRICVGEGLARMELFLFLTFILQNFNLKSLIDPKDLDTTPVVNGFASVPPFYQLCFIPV

[20] = test system: CYP2A; assay: In vivo enzyme induction: ethoxycoumarin O-deethylase; parameters: species or system Wistar rats; conditions: rats, 3–100 mg/kg p.o. once daily 7 days
[21] = ref Heinecke & Thiel, 2001; cited from earlier work; remark: listed apart in the source
[22] = target: CYP1A2 (Homo sapiens, UniProt P05177); assay: In vitro enzyme inhibition, recombinant CYP, fluorescent metabolites; format: in vitro ADME
Sequence of CYP1A2 (P05177 whole entry): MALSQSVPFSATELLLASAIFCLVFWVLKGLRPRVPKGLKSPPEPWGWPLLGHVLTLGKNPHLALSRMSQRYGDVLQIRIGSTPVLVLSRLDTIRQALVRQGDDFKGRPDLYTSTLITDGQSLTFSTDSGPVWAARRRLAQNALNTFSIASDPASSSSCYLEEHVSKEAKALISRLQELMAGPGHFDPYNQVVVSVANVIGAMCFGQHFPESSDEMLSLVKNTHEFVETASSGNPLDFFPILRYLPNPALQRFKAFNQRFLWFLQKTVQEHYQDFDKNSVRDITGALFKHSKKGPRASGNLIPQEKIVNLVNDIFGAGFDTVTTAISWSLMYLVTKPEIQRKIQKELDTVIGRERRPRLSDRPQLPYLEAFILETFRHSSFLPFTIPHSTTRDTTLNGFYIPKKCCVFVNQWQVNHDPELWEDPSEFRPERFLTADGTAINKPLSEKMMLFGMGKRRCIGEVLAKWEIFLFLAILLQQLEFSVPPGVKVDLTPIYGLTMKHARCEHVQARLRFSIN

[23] = both, beagle, dog, plasma, po, 30 mg/kg, Fasted
[24] = both, beagle, dog, plasma, po, 30 mg/kg, Fed
[25] = both, beagle, dog, plasma, po, 30 mg/kg, Day 0, fed
[26] = both, beagle, dog, plasma, po, 30 mg/kg, Day 5, fed
[27] = female, beagle, dog, plasma, po, 30 mg/kg, Females
[28] = male, beagle, dog, plasma, po, 30 mg/kg, Males
[29] = male, beagle, dog, plasma, po, 30 mg/kg, Males, fed

Compound: O=C1N=C(N2CCOCC2)CN1c1ccc(Cl)cc1 [Imepitoin, 1-(4-chlorophenyl)-4-morpholino-imidazolin-2-one]
- IC50 [1]: 55 µM
- IC50 [2]: > 100 µM
- Inhibition of the specific cytochrome P450 isoform IC50, 2D6 ([2]; recombinant human CYP2D6): did not influence
- induction of NAT2 [3]: did not induce
- radioactivity found in the washed precipitate (covalent binding) [4]: less than 0.5%
- maximal plasma concentrations ([5]; beagle dogs): 14.9 to 17.2 µg/mL
- reduction of total AUC by co-administration with food ([5]; crossover fed vs fasted): 30%
- AUCinf greater for fasted dogs ([5]; fasted vs fed): 30%
- Tmax ([5]; Day 5 (after 4 days BID)): 1.75 ^* h
- Terminal T½ ([5]; Fasted): 1.47 h
- Terminal T½ ([5]; Fed): 1.95 ^* h
- AUC(0-inf) [5, 23]: 90300 ng·h/mL
- AUC(0-inf) [5, 24]: 69200 ng·h/mL
- CL/F [5, 25]: 5.42 mL/min/kg
- CL/F [5, 26]: 8.92 mL/min/kg
- CL/F [5, 23]: 5.33 mL/min/kg
- CL/F [5, 24]: 6.95 mL/min/kg
- Cmax [5, 25]: 15000 ng/mL
- Cmax [5, 26]: 14800 ng/mL
- Cmax [5, 23]: 17200 ng/mL
- Cmax [5, 24]: 14900 ng/mL
- half-life ([5]; both, beagle, dog, plasma, po, 30 mg/kg, Terminal T½, Fed): 120 min
- Tmax ([5]; both, beagle, dog, plasma, po, 30 mg/kg, Tmax, Day 0, fed): 2.6 h
- Tmax ([5]; both, beagle, dog, plasma, po, 30 mg/kg, Tmax, Day 5, fed): 1.44 h
- Tmax ([5]; both, beagle, dog, plasma, po, 30 mg/kg, Tmax, Fasted): 2.17 h
- Tmax ([5]; both, beagle, dog, plasma, po, 30 mg/kg, Tmax, Fed): 2.02 h
- Vd/F [5, 25]: 0.892 L/kg
- Vd/F [5, 26]: 1.43 L/kg
- Vd/F [5, 23]: 0.663 L/kg
- Vd/F [5, 24]: 1.13 L/kg
- CL/F [5, 27]: 5.83 mL/min/kg
- Cmax [5, 27]: 18100 ng/mL
- Tmax ([5]; female, beagle, dog, plasma, po, 30 mg/kg, Tmax, Females): 1.89 h
- Vd/F [5, 27]: 0.833 L/kg
- AUC(0-inf) [5, 28]: 75500 ng·h/mL
- CL/F [5, 28]: 6.33 mL/min/kg
- CL/F [5, 29]: 7.33 mL/min/kg
- Cmax [5, 28]: 14200 ng/mL
- Cmax [5, 29]: 12500 ng/mL
- Tmax ([5]; male, beagle, dog, plasma, po, 30 mg/kg, Tmax, Males): 2.3 h
- Tmax ([5]; male, beagle, dog, plasma, po, 30 mg/kg, Tmax, Males, fed): 2.44 h
- Vd/F [5, 28]: 0.899 L/kg
- Vd/F [5, 29]: 1.19 L/kg
- influence on activity of CYP3A4 [6]: did not influence
- in vivo plasma protein binding ([7]; 2 h after 20 mg/kg p.o. or 1 mg/kg i.v.): 59–69%
- in vivo plasma protein binding ([7]; 8 h after 20 mg/kg p.o. or 1 mg/kg i.v.): 62–72%
- In vivo protein binding ([7]; female dogs, 1 mg/kg i.v., 2 h after dosing, mean ± SEM): 59 ± 0.69%
- In vivo protein binding ([7]; female dogs, 1 mg/kg i.v., 4 h after dosing, mean ± SEM): 66 ± 2.66%
- In vivo protein binding ([7]; female dogs, 1 mg/kg i.v., 8 h after dosing, mean ± SEM): 72 ± 1.33%
- In vivo protein binding ([7]; female dogs, 20 mg/kg p.o., 2 h after dosing): 69 (n < 3) %
- In vivo protein binding ([7]; female dogs, 20 mg/kg p.o., 4 h after dosing, mean ± SEM): 66 ± 0.69%
- In vivo protein binding ([7]; female dogs, 20 mg/kg p.o., 8 h after dosing, mean ± SEM): 62 ± 7.68%
- In vivo protein binding ([7]; male dogs, 20 mg/kg p.o., 2 h after dosing): 60 (n < 3) %
- In vivo protein binding ([7]; male dogs, 20 mg/kg p.o., 4 h after dosing, mean ± SEM): 63 ± 1.62%
- In vivo protein binding ([7]; male dogs, 20 mg/kg p.o., 8 h after dosing, mean ± SEM): 67 ± 2.71%
- fraction unbound at 15 min, 0.1 μg/mL ([8]; heparinized plasma): 0.43
- fraction unbound at 15 min, 1 μg/mL ([8]; heparinized plasma): 0.41
- fraction unbound at 15 min, 10 μg/mL ([8]; heparinized plasma): 0.43
- fraction unbound at 15 min ([8]; plasma (heparinized)): 0.41 to 0.43
- induction of CYP3A [9]: did not induce
- peak plasma concentration [10]: 1400 to 1700 ng/mL
- influence on activity of CYP2C8 [11]: did not influence
- induction of CYP2E1 [12]: did not induce
- IC50 [13]: > 100 µM
- Inhibition of the specific cytochrome P450 isoform IC50, 2A6 ([13]; recombinant human CYP2A6): did not influence
- elevation of threshold for pentylenetetrazole-induced convulsions ([14]; 5 mg/kg orally twice daily, 5 mg/kg): significant increase
- elevation of threshold for pentylenetetrazole-induced convulsions ([14]; 40 mg/kg twice daily, 40 mg/kg): much stronger elevation of threshold
- elevation of threshold for pentylenetetrazole-induced convulsions ([14]; 40 mg/kg twice daily, listed as imepitoin, 40 mg/kg): greatly enhanced the drug-induced effect
- development of tolerance toward anticonvulsant activity ([14]; repeated administration for 28 days): no development of tolerance
- induction of CYP2D1 [15]: did not induce
- tolerability, clinical adverse events ([16]; 20 mg/kg p.o. (3 male, 3 female dogs) and 1 mg/kg i.v. (3 female dogs)): well tolerated
- total radioactivity excreted urinary ([16]; after oral dosing, range males/females): 27–38%
- Fraction excreted, Total ([16]; females, 1 mg/kg i.v., 0–8 h): 30.62 (n < 3) % of intravenous dose
- Fraction excreted, Urine + Cage wash ([16]; females, 1 mg/kg i.v., 0–8 h): 30.62 (n < 3) % of intravenous dose
- Fraction excreted, Feces ([16]; females, 1 mg/kg i.v., 0–24 h): 54.74 (n < 3) % of intravenous dose
- Fraction excreted, Total ([16]; females, 1 mg/kg i.v., 0–24 h): 74.07 (33.4) % of intravenous dose
- Fraction excreted, Urine + Cage wash ([16]; females, 1 mg/kg i.v., 0–24 h): 37.58 (19.1) % of intravenous dose
- Fraction excreted, Feces ([16]; females, 1 mg/kg i.v., 0–48 h): 68.33 (n < 3) % of intravenous dose
- Fraction excreted, Total ([16]; females, 1 mg/kg i.v., 0–48 h): 85.43 (37.2) % of intravenous dose
- Fraction excreted, Urine + Cage wash ([16]; females, 1 mg/kg i.v., 0–48 h): 39.87 (19.9) % of intravenous dose
- Fraction excreted, Total ([16]; females, 1 mg/kg i.v., 0–264 h): 104.43 (4.4) % of intravenous dose
- Fraction excreted, Feces ([16]; females, 20 mg/kg p.o., 0–8 h): 0.09 (n < 3) % of oral dose
- Fraction excreted, Total ([16]; females, 20 mg/kg p.o., 0–8 h): 8.04 (n < 3) % of oral dose
- Fraction excreted, Urine + Cage wash ([16]; females, 20 mg/kg p.o., 0–8 h): 7.95 (n < 3) % of oral dose
- Fraction excreted, Feces ([16]; females, 20 mg/kg p.o., 0–24 h): 40.62 (n < 3) % of oral dose
- Fraction excreted, Total ([16]; females, 20 mg/kg p.o., 0–24 h): 63.58 (n < 3) % of oral dose
- Fraction excreted, Urine + Cage wash ([16]; females, 20 mg/kg p.o., 0–24 h): 22.96 (n < 3) % of oral dose
- Fraction excreted, Feces ([16]; females, 20 mg/kg p.o., 0–48 h): 45.64 (22.0) % of oral dose
- Fraction excreted, Total ([16]; females, 20 mg/kg p.o., 0–48 h): 76.52 (20.8) % of oral dose
- Fraction excreted, Urine + Cage wash ([16]; females, 20 mg/kg p.o., 0–48 h): 30.88 (23.3) % of oral dose
- Fraction excreted, Total ([16]; females, 20 mg/kg p.o., 0–264 h): 93.84 (8.4) % of oral dose
- Fraction excreted, Total ([16]; males, 20 mg/kg p.o., 0–8 h): 0.58 (n < 3) % of oral dose
- Fraction excreted, Urine + Cage wash ([16]; males, 20 mg/kg p.o., 0–8 h): 0.58 (n < 3) % of oral dose
- Fraction excreted, Feces ([16]; males, 20 mg/kg p.o., 0–24 h): 34.41 (92.2) % of oral dose
- Fraction excreted, Total ([16]; males, 20 mg/kg p.o., 0–24 h): 51.11 (66.2) % of oral dose
- Fraction excreted, Urine + Cage wash ([16]; males, 20 mg/kg p.o., 0–24 h): 16.70 (20.9) % of oral dose
- Fraction excreted, Feces ([16]; males, 20 mg/kg p.o., 0–48 h): 75.65 (12.3) % of oral dose
- Fraction excreted, Total ([16]; males, 20 mg/kg p.o., 0–48 h): 97.51 (6.4) % of oral dose
- Fraction excreted, Urine + Cage wash ([16]; males, 20 mg/kg p.o., 0–48 h): 21.86 (20.5) % of oral dose
- Fraction excreted, Total ([16]; males, 20 mg/kg p.o., 0–264 h): 104.74 (2.8) % of oral dose
- total radioactivity excreted within 48 h ([16]; urine + feces, range over dosing groups): 76–97% and 76.5–97.5%
- induction of NAT1 [17]: did not induce
- lipophilicity [18]: high lipophilicity
- IC50 [19]: > 100 µM
- Inhibition of the specific cytochrome P450 isoform IC50, 2C19 ([19]; recombinant human CYP2C19): did not influence
- induction of CYP2A [20]: did not induce
- solubility in acidic media such as gastric fluid [21]: more readily soluble in acidic media
- solubility in aqueous media [21]: very low solubility in aqueous media
- IC50 [22]: > 100 µM
- Inhibition of the specific cytochrome P450 isoform IC50, 1A2 ([22]; recombinant human CYP1A2): did not influence
